Measured values taken from PubChem BioAssay (NCI).
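Each compound was tested at five concentrations against cells in 96-well plates for 48 hours. Here, GI50 denotes the concentration required for 50% inhibition of growth. TGI marks complete inhibition of growth.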

Key:
Test in all cases: NCI anticancer screen, dose series, 48 h
786-0 renal = system: 786-0 renal
A498 renal = system: A498 renal
A549 NSCLC = system: A549 NSCLC
ACHN renal = system: ACHN renal
BT-549 breast = system: BT-549 breast
CAKI-1 renal = system: CAKI-1 renal
CCRF-CEM leukemia = system: CCRF-CEM leukemia
COLO 205 colon = system: COLO 205 colon
DU-145 prostate = system: DU-145 prostate
HCC-2998 colon = system: HCC-2998 colon
HCT-116 colon = system: HCT-116 colon
HCT-15 colon = system: HCT-15 colon
HL-60(TB) leukemia = system: HL-60(TB) leukemia
HOP-62 NSCLC = system: HOP-62 NSCLC
HOP-92 NSCLC = system: HOP-92 NSCLC
HS 578T breast = system: HS 578T breast
HT29 colon = system: HT29 colon
IGROV1 ovarian = system: IGROV1 ovarian
K-562 leukemia = system: K-562 leukemia
KM12 colon = system: KM12 colon
LOX IMVI melanoma = system: LOX IMVI melanoma
M14 melanoma = system: M14 melanoma
MALME-3M melanoma = system: MALME-3M melanoma
MCF7 breast = system: MCF7 breast
MDA-MB-231 breast = system: MDA-MB-231 breast
MDA-MB-435 = system: MDA-MB-435
MOLT-4 leukemia = system: MOLT-4 leukemia
NCI-H226 lung = system: NCI-H226 lung
NCI-H23 lung = system: NCI-H23 lung
NCI-H460 lung = system: NCI-H460 lung
NCI-H522 lung = system: NCI-H522 lung
NCI/ADR-RES ovarian = system: NCI/ADR-RES ovarian
OVCAR-3 ovarian = system: OVCAR-3 ovarian
OVCAR-4 ovarian = system: OVCAR-4 ovarian
OVCAR-5 ovarian = system: OVCAR-5 ovarian
OVCAR-8 ovarian = system: OVCAR-8 ovarian
PC-3 prostate = system: PC-3 prostate
RPMI-8226 leukemia = system: RPMI-8226 leukemia
RXF 393 renal = system: RXF 393 renal
SF-268 CNS = system: SF-268 CNS
SF-295 CNS = system: SF-295 CNS
SF-539 CNS = system: SF-539 CNS
SK-MEL-2 melanoma = system: SK-MEL-2 melanoma
SK-MEL-28 melanoma = system: SK-MEL-28 melanoma
SK-MEL-5 melanoma = system: SK-MEL-5 melanoma
SK-OV-3 ovarian = system: SK-OV-3 ovarian
SN12C renal = system: SN12C renal
SNB-19 CNS = system: SNB-19 CNS
SNB-75 CNS = system: SNB-75 CNS
SR leukemia = system: SR leukemia
SW-620 colon = system: SW-620 colon
T-47D breast = system: T-47D breast
TK-10 renal = system: TK-10 renal
U251 CNS = system: U251 CNS
UACC-257 melanoma = system: UACC-257 melanoma
UACC-62 melanoma = system: UACC-62 melanoma
UO-31 renal = system: UO-31 renal

Work on `COc1cc(-c2cc(/C=C3\C(=O)Nc4cc(Cl)ccc43)[nH]n2)cc(OC)c1OC` yielded a GI50 (786-0 renal) of 14.4 µM, a TGI (786-0 renal) of 60.1 µM and a GI50 (A498 renal) of 2.24 µM. It also gave a TGI (A498 renal) of 8.22 µM, a GI50 (A549 NSCLC) of 3.23 µM and a TGI (A549 NSCLC) of 15 µM. For the same molecule, the GI50 (ACHN renal) was 3.48 µM, the TGI (ACHN renal) was 25.6 µM and the GI50 (BT-549 breast) was 2.54 µM. It also gave a TGI (BT-549 breast) of 7.58 µM, a GI50 (CAKI-1 renal) of 2.71 µM and a TGI (CAKI-1 renal) of 22.5 µM. The GI50 (CCRF-CEM leukemia) was 2.63 µM, the TGI (CCRF-CEM leukemia) was 8.43 µM and the GI50 (COLO 205 colon) was 1.93 µM. It also gave a TGI (COLO 205 colon) of 4.36 µM, a GI50 (DU-145 prostate) of 3.46 µM and a TGI (DU-145 prostate) of 14.5 µM. It also gave a GI50 (HCC-2998 colon) of 7.42 µM, a TGI (HCC-2998 colon) of over 100 µM and a GI50 (HCT-116 colon) of 2.74 µM. The TGI (HCT-116 colon) was 10.3 µM, the GI50 (HCT-15 colon) was 2.59 µM and the TGI (HCT-15 colon) was 7.77 µM. For the same molecule, the GI50 (HL-60(TB) leukemia) was 2.45 µM, the TGI (HL-60(TB) leukemia) was 7.59 µM and the GI50 (HOP-62 NSCLC) was 2.16 µM. The TGI (HOP-62 NSCLC) was 6.46 µM, the GI50 (HOP-92 NSCLC) was 1.77 µM and the TGI (HOP-92 NSCLC) was 8.89 µM. For the same molecule, the GI50 (HS 578T breast) was 2.74 µM, the TGI (HS 578T breast) was 9.31 µM and the GI50 (HT29 colon) was 3.46 µM. For the same molecule, the TGI (HT29 colon) was 18.6 µM, the GI50 (IGROV1 ovarian) was 3.45 µM and the TGI (IGROV1 ovarian) was 37.2 µM. For the same molecule, the GI50 (K-562 leukemia) was 2.82 µM, the TGI (K-562 leukemia) was 22.6 µM and the GI50 (KM12 colon) was 2.27 µM. It also gave a TGI (KM12 colon) of 6.93 µM, a GI50 (LOX IMVI melanoma) of 1.81 µM and a TGI (LOX IMVI melanoma) of 4.06 µM. It also gave a GI50 (M14 melanoma) of 2.42 µM, a TGI (M14 melanoma) of 6.99 µM and a GI50 (MALME-3M melanoma) of 2.71 µM. The TGI (MALME-3M melanoma) was 6.96 µM, the GI50 (MCF7 breast) was 2.26 µM and the TGI (MCF7 breast) was 6.39 µM. It also gave a GI50 (MDA-MB-231 breast) of 3.14 µM, a TGI (MDA-MB-231 breast) of over 100 µM and a GI50 (MDA-MB-435) of 1.96 µM. It also gave a TGI (MDA-MB-435) of 4.18 µM, a GI50 (MOLT-4 leukemia) of 2.48 µM and a TGI (MOLT-4 leukemia) of 6.43 µM. It also gave a GI50 (NCI-H226 lung) of 2.29 µM, a TGI (NCI-H226 lung) of 7.94 µM and a GI50 (NCI-H23 lung) of 3.84 µM. For the same molecule, the TGI (NCI-H23 lung) was 18.1 µM, the GI50 (NCI-H460 lung) was 2.1 µM and the TGI (NCI-H460 lung) was 4.9 µM. For the same molecule, the GI50 (NCI-H522 lung) was 2.4 µM, the TGI (NCI-H522 lung) was 6.09 µM and the GI50 (NCI/ADR-RES ovarian) was 2.74 µM. The TGI (NCI/ADR-RES ovarian) was 7.49 µM, the GI50 (OVCAR-3 ovarian) was 2.74 µM and the TGI (OVCAR-3 ovarian) was 15.1 µM. It also gave a GI50 (OVCAR-4 ovarian) of 2.91 µM, a TGI (OVCAR-4 ovarian) of 15 µM and a GI50 (OVCAR-5 ovarian) of 4.27 µM. The TGI (OVCAR-5 ovarian) was 78.1 µM, the GI50 (OVCAR-8 ovarian) was 2.17 µM and the TGI (OVCAR-8 ovarian) was 5.32 µM. For the same molecule, the GI50 (PC-3 prostate) was 2.25 µM, the TGI (PC-3 prostate) was 7.83 µM and the GI50 (RPMI-8226 leukemia) was 2.02 µM. The TGI (RPMI-8226 leukemia) was 4.92 µM, the GI50 (RXF 393 renal) was 5.66 µM and the TGI (RXF 393 renal) was 42 µM. For the same molecule, the GI50 (SF-268 CNS) was 3.36 µM, the TGI (SF-268 CNS) was 29.1 µM and the GI50 (SF-295 CNS) was 2.84 µM. For the same molecule, the TGI (SF-295 CNS) was 8.89 µM, the GI50 (SF-539 CNS) was 3.92 µM and the TGI (SF-539 CNS) was 21.8 µM. It also gave a GI50 (SK-MEL-2 melanoma) of 2.75 µM, a TGI (SK-MEL-2 melanoma) of 7.5 µM and a GI50 (SK-MEL-28 melanoma) of 3.91 µM. It also gave a TGI (SK-MEL-28 melanoma) of 26.4 µM, a GI50 (SK-MEL-5 melanoma) of 1.43 µM and a TGI (SK-MEL-5 melanoma) of 2.79 µM. It also gave a GI50 (SK-OV-3 ovarian) of 3.29 µM, a TGI (SK-OV-3 ovarian) of 25.1 µM and a GI50 (SN12C renal) of 2.68 µM. For the same molecule, the TGI (SN12C renal) was 14.2 µM, the GI50 (SNB-19 CNS) was 3.45 µM and the TGI (SNB-19 CNS) was over 100 µM. For the same molecule, the GI50 (SNB-75 CNS) was 1.87 µM, the TGI (SNB-75 CNS) was 8.17 µM and the GI50 (SR leukemia) was 2.33 µM. For the same molecule, the TGI (SR leukemia) was 5.66 µM, the GI50 (SW-620 colon) was 2.87 µM and the TGI (SW-620 colon) was 14.9 µM. It also gave a GI50 (T-47D breast) of 2.13 µM, a TGI (T-47D breast) of 6.79 µM and a GI50 (TK-10 renal) of 5.95 µM. For the same molecule, the TGI (TK-10 renal) was 32.3 µM, the GI50 (U251 CNS) was 2.84 µM and the TGI (U251 CNS) was 14.8 µM. It also gave a GI50 (UACC-257 melanoma) of 2.43 µM, a TGI (UACC-257 melanoma) of 6.13 µM and a GI50 (UACC-62 melanoma) of 1.76 µM. For the same molecule, the TGI (UACC-62 melanoma) was 4.3 µM, the GI50 (UO-31 renal) was 2.66 µM and the TGI (UO-31 renal) was 15.6 µM.
